# Calls of active or inactive are those of the source.
# Tests used:
# Hexokinase HKDC1 = target: T1, Hexokinase HKDC1 (Homo sapiens, UniProt Q2TB90); test: inhibition of HKDC1 glucose phosphorylation – biochemical, W721R variant, dose response (AID 504729); type: functional
# T1 sequence (Q2TB90 whole entry): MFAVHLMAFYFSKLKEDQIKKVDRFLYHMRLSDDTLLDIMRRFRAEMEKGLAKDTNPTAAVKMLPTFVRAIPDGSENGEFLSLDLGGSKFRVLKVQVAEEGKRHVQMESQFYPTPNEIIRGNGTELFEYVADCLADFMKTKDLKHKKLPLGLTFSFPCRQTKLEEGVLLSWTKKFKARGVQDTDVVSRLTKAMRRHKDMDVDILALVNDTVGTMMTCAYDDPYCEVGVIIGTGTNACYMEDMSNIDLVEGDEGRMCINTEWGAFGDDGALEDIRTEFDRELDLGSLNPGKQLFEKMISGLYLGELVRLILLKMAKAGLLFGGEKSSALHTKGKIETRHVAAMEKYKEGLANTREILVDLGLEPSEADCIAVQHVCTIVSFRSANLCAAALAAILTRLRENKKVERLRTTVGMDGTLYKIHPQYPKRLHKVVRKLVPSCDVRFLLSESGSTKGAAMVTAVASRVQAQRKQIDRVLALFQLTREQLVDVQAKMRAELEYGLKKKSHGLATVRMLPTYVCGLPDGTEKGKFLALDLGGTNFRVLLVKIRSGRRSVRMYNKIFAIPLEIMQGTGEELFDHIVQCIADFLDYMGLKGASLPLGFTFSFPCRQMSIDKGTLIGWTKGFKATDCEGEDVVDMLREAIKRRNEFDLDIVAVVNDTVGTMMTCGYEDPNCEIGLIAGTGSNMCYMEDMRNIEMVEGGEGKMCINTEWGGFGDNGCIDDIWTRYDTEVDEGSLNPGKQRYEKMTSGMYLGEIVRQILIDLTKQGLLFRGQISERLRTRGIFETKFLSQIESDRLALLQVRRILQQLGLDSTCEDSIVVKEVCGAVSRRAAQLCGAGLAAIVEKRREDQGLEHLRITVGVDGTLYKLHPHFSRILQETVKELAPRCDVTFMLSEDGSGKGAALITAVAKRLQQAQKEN
# [1] = target: Induced myeloid leukemia cell differentiation protein Mcl-1 (Homo sapiens, UniProt Q07820); type: functional
# HEK293 [2] = test: EBV LMP1 TES2 canonical NF-kB signalling blockers – cell-based, HEK293, luciferase, cherry-pick, dose response (AID 588343); type: functional; details: Homo sapiens
# [3] = target: FAD-linked sulfhydryl oxidase ALR (Homo sapiens, UniProt P55789); test: ALR-catalysed DTT oxidation blockers – biochemical, H2O2 detection, luminescence, cherry-pick, dose response (AID 493248)
# [4] = target: Mitogen-activated protein kinase 10 (Homo sapiens, UniProt P53779); test: Dose response biochemical screening assay for inhibitors of c-Jun N-Terminal Kinase 3 (JNK3). [Related pubchem assays: 746 ]
# [5] = target: Dual specificity tyrosine-phosphorylation-regulated kinase 1A (Rattus norvegicus, UniProt Q63470); type: biochemical, Homo sapiens
# Cytochrome P450 2C9 [6] = target: T2, Cytochrome P450 2C9 (Homo sapiens, UniProt P11712)
# Cytochrome P450 3A4 = Cytochrome P450 3A4 (Homo sapiens, UniProt P08684);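 also: CYP3A4 tested as one member of a cytochrome P450 panel screen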
# Cytochrome P450 2C19 = Cytochrome P450 2C19 (Homo sapiens, UniProt P33261); test: Cytochrome panel assay with activity outcomes. Panel member name: p450-cyp2c19 Compounds with AC50 equal or less than 10 uM are considered active; type: functional; details: read-out: AC50
# Cytochrome P450 1A2 = target: T3, Cytochrome P450 1A2 (Homo sapiens, UniProt P05177);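 also: PubChem cytochrome P450 panel assay, CYP1A2 panel member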
# T3 sequence (P05177 whole entry): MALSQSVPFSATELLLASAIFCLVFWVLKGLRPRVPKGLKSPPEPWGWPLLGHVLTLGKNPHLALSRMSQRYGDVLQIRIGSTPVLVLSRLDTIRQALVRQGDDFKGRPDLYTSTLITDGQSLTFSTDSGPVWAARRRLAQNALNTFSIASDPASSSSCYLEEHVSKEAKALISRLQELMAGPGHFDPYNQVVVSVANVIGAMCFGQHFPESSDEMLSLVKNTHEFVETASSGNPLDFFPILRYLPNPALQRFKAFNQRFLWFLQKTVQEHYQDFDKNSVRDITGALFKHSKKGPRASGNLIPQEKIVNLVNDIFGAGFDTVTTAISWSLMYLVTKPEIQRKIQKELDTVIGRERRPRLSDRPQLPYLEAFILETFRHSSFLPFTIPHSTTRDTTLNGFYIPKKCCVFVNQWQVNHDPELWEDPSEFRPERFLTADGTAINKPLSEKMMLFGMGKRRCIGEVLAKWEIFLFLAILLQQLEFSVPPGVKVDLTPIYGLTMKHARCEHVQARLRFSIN
# Large T antigen = Large T antigen (Simian virus 40, UniProt P03070); type: functional, Betapolyomavirus macacae;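 also: Confirmatory-stage PubChem screen for compounds that inhibit SV40 T antigen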
# [7] = reduction of Shn3 3'UTR-driven luciferase in osteoblasts – cell-based, Clone20 osteoblasts, firefly luciferase, cherry-picked, dose response (AID 624132); type: functional;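 also: firefly luciferase luminescence from reporter carrying the Shn3 3'UTR in osteoblasts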
# [8] = loss of viability in HepG2 cells – cell-based, CellTiter-Glo, cherry-picked, cytotoxicity control for Shn3 inhibitor project, dose response (AID 624134); type: functional
# Fatty acid synthase [9] = target: T4, Fatty acid synthase (Homo sapiens, UniProt P49327); test: inhibition of human FAS-TE enzyme activity – biochemical, endpoint fluorescence intensity, uHTS hits, dose response (AID 624327); type: functional;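 also: fluorescence from hydrolysis of an O-methyl fluorescein acyl ester substrate by the enzyme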
# Fatty acid synthase [10] = target: T4, Fatty acid synthase; test: inhibition of human FAS-TE enzyme activity – biochemical, kinetic fluorescence intensity, dose response (AID 624326); type: functional;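 also: rate of fluorescence rise from hydrolysis of a fluorogenic O-methyl fluorescein ester substrate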
# Cytochrome P450 2C9 [11] = target: T2, Cytochrome P450 2C9; remark: listed apart in the source
# [12] = target: Heat shock protein HSP 90-alpha (Homo sapiens, UniProt P07900); type: functional, organism-based
# Cytochrome P450 2D6 = Cytochrome P450 2D6 (Homo sapiens, UniProt P10635);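 also: CYP2D6 member of a cytochrome P450 panel assay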
# [13] = target: T5, RNA-binding protein pos-1 (Caenorhabditis elegans, UniProt G5EF15); test: disruptors of C. elegans POS-1 RNA interaction – biochemical, fluorescence polarization, dose response (AID 1964);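 also: purified POS-1 fused to maltose binding protein made in E. coli; potency of compounds blocking POS-1 binding to fluorescent RNA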
# T5 sequence (G5EF15 whole entry): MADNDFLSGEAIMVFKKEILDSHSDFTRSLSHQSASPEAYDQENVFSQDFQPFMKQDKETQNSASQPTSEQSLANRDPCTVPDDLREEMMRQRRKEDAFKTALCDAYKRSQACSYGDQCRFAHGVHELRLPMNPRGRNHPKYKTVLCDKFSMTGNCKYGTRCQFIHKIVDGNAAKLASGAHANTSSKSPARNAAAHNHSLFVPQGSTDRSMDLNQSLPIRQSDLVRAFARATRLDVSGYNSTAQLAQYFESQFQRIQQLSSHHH
# HEK293 [14] = test: cells; details: Homo sapiens
# [15] = target: T6, Zinc finger protein mex-5 (Caenorhabditis elegans, UniProt Q9XUB2); test: potency of MEX-5 RNA-binding blockers – biochemical, C. elegans, fluorescence polarization, dose response (AID 1960)
# T6 sequence (Q9XUB2 whole entry): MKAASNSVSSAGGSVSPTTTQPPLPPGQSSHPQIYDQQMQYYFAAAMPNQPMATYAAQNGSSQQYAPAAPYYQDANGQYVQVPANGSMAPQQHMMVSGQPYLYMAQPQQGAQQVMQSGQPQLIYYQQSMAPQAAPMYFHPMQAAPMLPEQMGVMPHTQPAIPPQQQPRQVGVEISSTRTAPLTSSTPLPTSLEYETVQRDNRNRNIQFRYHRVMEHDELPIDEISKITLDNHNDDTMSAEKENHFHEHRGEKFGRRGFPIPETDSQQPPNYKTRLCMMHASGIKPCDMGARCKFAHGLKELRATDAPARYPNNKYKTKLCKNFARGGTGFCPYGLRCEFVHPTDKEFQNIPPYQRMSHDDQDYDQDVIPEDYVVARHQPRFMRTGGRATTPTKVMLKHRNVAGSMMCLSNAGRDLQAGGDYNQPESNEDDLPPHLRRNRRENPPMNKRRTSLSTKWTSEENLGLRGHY
# HEK293 [16] = test: cells; details: Homo sapiens; remark: listed apart in the source
# Paired box protein Pax-8 = Paired box protein Pax-8 (Homo sapiens, UniProt Q06710); test: PAX8 transcriptional activity inhibition in RMG-I – RMG-I cells, luciferase, cherry-pick, dose response (AID 687027); type: functional, cell-based;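 also: luciferase reporter driven by Pax8 target thyroperoxidase promoter measured by SteadyGlo luminescence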
# [17] = non-specific 3'UTR reporter inhibition in Clone20-Shn3RL – cell-based, Renilla luciferase, cherry-picked, counter-screen for Shn3 inhibitor project, dose response (AID 624133); type: functional
# INS1 = test: INS-1E survival protection against cytokine death – cell-based, luminescence, retest, dose response (AID 449756); type: functional; details: Rattus norvegicus;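 also: cell death triggered by IL-1 beta plus TNF-alpha plus IFN-gamma mixture; protective hits raise ATP signal compared with cytokine alone wells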
# [18] = Luminescence Cell-Based Dose Confirmation HTS to Identify Inhibitors of Platelet Dense Granule Release. [Related pubchem assays: 1663 (Primary HTS), 1678 (Summary of Project)]; type: functional
# Genome polyprotein = Genome polyprotein (dengue virus type 2, UniProt P29990); test: flavivirus cap methylation enzyme inhibition – biochemical, confirmation dose response, primary screen (AID 588689); type: functional
# [19] = target: Luciferin 4-monooxygenase (Photinus pyralis, UniProt P08659); test: inhibition of purified Photinus pyralis luciferase – biochemical, luminescence, dose response (AID 1891)
# T2 sequence (P11712 whole entry): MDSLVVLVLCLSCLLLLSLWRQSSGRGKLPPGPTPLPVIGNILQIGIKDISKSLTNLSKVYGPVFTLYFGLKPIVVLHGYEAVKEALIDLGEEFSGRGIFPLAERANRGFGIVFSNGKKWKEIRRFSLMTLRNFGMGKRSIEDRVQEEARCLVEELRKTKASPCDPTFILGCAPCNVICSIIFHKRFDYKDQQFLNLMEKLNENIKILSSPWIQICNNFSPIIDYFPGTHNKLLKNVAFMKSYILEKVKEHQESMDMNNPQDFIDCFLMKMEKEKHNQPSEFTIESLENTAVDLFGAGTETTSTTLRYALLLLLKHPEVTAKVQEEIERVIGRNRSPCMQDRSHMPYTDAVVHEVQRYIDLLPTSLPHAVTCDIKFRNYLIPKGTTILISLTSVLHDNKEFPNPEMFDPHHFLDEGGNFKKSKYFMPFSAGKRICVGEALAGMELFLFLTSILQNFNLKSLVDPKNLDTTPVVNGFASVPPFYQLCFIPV
# Sequence of Mitogen-activated protein kinase 10 (P53779 whole entry): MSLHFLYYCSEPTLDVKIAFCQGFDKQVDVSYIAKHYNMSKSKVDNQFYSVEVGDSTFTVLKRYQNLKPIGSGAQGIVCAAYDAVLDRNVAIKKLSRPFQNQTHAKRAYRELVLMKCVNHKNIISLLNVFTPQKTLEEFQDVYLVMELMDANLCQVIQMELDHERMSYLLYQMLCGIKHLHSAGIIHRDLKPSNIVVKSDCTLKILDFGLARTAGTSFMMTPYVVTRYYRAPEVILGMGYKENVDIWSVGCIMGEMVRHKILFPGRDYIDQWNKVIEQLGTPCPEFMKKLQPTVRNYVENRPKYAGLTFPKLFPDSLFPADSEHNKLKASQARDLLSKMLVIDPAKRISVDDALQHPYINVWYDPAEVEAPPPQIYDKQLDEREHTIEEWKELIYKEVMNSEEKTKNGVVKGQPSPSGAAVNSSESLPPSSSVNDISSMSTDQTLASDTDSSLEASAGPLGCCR
# T4 sequence (P49327 whole entry): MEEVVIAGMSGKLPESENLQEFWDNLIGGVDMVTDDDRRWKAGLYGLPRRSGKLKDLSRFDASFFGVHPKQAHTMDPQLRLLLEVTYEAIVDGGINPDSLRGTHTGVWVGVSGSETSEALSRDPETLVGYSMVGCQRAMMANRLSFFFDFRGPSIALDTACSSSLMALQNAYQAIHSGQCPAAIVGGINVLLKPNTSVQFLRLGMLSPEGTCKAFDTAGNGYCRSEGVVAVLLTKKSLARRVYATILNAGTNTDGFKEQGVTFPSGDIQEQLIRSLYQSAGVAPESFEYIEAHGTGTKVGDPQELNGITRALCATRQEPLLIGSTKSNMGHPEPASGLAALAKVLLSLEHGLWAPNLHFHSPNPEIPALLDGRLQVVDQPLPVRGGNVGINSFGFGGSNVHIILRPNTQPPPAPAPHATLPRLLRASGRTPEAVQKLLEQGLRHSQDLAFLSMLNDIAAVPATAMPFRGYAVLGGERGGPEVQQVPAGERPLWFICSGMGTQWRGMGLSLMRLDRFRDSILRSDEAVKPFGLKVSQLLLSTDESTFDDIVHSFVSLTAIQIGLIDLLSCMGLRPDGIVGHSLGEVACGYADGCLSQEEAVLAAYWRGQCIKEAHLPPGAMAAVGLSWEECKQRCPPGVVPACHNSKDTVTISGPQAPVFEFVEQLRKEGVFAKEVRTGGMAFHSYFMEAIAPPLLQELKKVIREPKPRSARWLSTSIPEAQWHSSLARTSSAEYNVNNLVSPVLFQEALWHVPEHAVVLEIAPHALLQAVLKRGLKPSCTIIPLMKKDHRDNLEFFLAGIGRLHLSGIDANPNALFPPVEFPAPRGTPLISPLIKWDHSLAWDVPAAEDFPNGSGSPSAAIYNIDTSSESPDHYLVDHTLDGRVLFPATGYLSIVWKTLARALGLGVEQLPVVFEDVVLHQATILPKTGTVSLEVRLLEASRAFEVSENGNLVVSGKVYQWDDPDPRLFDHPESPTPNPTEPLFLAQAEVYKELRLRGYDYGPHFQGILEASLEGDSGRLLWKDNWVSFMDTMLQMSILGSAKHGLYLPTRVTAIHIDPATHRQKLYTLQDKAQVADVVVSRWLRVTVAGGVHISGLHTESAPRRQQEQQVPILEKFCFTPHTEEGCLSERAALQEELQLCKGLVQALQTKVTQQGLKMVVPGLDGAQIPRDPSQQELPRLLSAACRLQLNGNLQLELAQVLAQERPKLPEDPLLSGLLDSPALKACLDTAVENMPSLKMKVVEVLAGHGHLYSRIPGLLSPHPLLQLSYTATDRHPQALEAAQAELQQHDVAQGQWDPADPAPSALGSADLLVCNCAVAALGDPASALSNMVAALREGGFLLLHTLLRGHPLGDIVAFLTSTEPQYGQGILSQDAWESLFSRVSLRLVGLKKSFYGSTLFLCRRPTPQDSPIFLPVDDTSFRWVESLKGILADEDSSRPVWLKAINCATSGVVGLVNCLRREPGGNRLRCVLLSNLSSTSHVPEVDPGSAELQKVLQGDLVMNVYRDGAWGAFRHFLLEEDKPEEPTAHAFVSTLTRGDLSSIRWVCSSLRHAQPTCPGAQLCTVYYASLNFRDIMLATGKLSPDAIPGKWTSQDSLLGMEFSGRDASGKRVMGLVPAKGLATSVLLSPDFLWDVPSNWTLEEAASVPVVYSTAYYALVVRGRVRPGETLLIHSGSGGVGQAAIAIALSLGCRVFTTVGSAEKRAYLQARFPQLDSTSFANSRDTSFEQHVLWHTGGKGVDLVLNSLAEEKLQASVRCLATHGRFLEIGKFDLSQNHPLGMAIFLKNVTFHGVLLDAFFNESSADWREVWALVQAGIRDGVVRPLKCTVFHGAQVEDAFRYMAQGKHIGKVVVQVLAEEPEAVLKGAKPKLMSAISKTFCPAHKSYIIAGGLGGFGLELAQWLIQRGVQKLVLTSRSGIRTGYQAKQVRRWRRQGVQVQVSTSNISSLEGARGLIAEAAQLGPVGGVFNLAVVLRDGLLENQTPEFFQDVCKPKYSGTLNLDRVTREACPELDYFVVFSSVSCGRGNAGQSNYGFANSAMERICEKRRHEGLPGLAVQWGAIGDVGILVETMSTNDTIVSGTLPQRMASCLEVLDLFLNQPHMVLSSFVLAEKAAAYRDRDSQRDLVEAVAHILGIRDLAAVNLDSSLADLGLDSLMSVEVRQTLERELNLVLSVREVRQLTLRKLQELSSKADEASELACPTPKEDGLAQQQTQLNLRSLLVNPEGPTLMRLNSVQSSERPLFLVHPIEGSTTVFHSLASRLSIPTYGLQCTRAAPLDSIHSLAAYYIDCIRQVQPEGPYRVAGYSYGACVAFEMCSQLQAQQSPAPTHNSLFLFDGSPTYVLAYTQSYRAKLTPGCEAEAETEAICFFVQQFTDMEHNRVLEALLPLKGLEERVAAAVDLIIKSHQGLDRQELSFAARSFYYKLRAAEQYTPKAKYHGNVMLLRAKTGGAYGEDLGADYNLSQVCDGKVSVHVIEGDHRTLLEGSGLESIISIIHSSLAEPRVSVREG
# Sequence of Induced myeloid leukemia cell differentiation protein Mcl-1 (Q07820 whole entry): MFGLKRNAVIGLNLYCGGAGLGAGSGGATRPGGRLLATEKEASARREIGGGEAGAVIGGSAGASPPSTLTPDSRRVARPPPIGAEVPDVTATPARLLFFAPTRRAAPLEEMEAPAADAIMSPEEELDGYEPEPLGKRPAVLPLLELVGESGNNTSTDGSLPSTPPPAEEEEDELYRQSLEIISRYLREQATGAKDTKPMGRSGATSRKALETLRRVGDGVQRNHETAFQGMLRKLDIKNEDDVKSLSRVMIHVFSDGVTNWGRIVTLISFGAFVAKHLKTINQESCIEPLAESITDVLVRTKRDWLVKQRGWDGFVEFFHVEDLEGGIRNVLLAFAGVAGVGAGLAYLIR
# Sequence of Cytochrome P450 2D6 (P10635 whole entry, the tested form may be a part): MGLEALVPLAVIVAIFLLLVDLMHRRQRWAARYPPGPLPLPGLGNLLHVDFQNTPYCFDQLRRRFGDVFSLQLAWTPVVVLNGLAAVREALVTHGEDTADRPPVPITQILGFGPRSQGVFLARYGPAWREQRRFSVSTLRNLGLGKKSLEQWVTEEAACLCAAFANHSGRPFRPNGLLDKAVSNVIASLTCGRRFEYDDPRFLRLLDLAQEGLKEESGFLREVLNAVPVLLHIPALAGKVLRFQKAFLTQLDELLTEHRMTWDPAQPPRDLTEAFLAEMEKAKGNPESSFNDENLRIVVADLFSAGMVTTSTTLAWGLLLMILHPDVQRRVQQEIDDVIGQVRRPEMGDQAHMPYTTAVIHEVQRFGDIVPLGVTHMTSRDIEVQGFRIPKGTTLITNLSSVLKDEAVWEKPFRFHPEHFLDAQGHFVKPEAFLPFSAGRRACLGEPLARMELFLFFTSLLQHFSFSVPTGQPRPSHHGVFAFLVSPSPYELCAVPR
# Sequence of Cytochrome P450 3A4 (P08684 whole entry): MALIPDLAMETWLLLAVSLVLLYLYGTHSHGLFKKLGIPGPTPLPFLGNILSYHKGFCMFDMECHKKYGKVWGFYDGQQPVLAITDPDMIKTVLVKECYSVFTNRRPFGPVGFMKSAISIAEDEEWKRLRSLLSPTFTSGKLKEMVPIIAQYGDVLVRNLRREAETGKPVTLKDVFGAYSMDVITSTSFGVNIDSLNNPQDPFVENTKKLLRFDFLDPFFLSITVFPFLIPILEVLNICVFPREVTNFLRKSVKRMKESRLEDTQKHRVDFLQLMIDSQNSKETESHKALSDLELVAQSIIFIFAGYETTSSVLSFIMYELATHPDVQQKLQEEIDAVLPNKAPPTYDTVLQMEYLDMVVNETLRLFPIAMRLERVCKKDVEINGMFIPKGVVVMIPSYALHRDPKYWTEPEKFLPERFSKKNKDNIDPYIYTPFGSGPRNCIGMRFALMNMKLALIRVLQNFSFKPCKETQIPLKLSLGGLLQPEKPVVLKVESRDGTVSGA
# Sequence of FAD-linked sulfhydryl oxidase ALR (P55789 whole entry): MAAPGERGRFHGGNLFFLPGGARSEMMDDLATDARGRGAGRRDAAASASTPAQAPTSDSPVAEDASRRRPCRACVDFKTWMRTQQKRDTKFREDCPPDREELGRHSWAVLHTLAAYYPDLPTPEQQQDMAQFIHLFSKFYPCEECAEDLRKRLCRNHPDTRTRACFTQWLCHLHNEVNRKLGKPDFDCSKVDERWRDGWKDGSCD
smiles,measurement,setting,value
Cc1cc2cc(CCNC(=O)c3ccc(S(=O)(=O)N4CCOCC4)cc3)c(O)nc2cc1C,IC50,Hexokinase HKDC1,11.1 µM (active)
CC(=O)c1cc(C#N)c(SCc2ccccn2)nc1C,IC50,[1],5.73 µM (not active)
CC(=O)Nc1nc(C)c(-c2csc(Nc3ccc(O)cc3)n2)s1,AC50,HEK293 [2],3.85 µM (active)
same,AC50,[3],0.17 µM (active)
same,IC50,[4],> 93.1 µM (not active)
same,AC50,[5],0.988 µM (active)
Cc1ccc(NC(=O)c2sc3ncnc(O)c3c2C)c(C)c1,AC50,Cytochrome P450 2C9 [6],inconclusive
same,AC50,Cytochrome P450 3A4,15.8 µM (inconclusive)
same,AC50,Cytochrome P450 2C19,14.1 µM (inconclusive)
same,AC50,Cytochrome P450 1A2,14.1 µM (inconclusive)
COc1cccc(OCC(=O)Nc2ccccc2C(N)=O)c1,IC50,[4],55.2 µM (not active)
CCN(CC)c1ccc(NC(=O)c2cnn(CC)c2)cc1,IC50,Large T antigen,6.73 µM (active)
same,AC50,Cytochrome P450 2C9 [6],inconclusive
same,AC50,[3],0.215 µM (active)
CSc1nc(N2CCN(Cc3ccc4c(c3)OCO4)CC2)c2ccccc2n1,AC50,[7],24.1 µM (active)
same,AC50,[8],> 70 µM (inactive)
COc1ccc(CNC(=O)/C=C/c2cc([N+](=O)[O-])ccc2OC(F)F)cc1,IC50,Fatty acid synthase [9],1.17 µM (active)
same,IC50,Fatty acid synthase [10],1.37 µM (active)
CCN(CC)N=Nc1[nH]nc2nc(C)cc(C)c12,AC50,Cytochrome P450 2C9 [11],17.8 µM (inconclusive)
same,AC50,[12],2.42 µM (active)
same,AC50,Cytochrome P450 2D6,12.6 µM (inconclusive)
C[C@@]12CC[C@@H]3c4ccc(O)cc4CC[C@H]3[C@H]1C[C@@H](O)[C@H]2O,AC50,Cytochrome P450 2C9 [6],inconclusive
same,AC50,Cytochrome P450 2C19,7.94 µM (inconclusive)
Cn1cc(C2=C(c3ccc(Cl)cc3Cl)C(=O)NC2=O)c2ccccc21 [SB-216763],AC50,Cytochrome P450 2C9 [11],31.6 µM (inconclusive)
same,EC50,[13],26 µM (active)
same,EC50,HEK293 [14],> 59.6 µM (inactive)
same,EC50,[15],21.5 µM (inconclusive)
same,EC50,HEK293 [16],> 59.6 µM (inactive)
same,AC50,Paired box protein Pax-8,4.61 µM (active)
CCn1c(COc2ccccc2)nnc1SCC(=O)Nc1cc(OC)ccc1OC,AC50,Cytochrome P450 2C9 [6],inconclusive
same,AC50,Cytochrome P450 1A2,25.1 µM (inconclusive)
CCCc1nc2oc3c(OC)ncnc3c2c2c1COC(C)(C)C2,IC50,Hexokinase HKDC1,23 µM (inactive)
COc1ccc(C(=O)N/C(=C\c2ccc([N+](=O)[O-])cc2)C(=O)NC(CCSC)C(=O)O)cc1 (configuration not stated),IC50,Fatty acid synthase [9],7.76 µM (active)
same,IC50,Fatty acid synthase [10],5.76 µM (active)
CCCCCOC(=O)C1=C(C)NC(=O)NC1c1ccc([N+](=O)[O-])cc1 (configuration not stated),IC50,Fatty acid synthase [9],9.26 µM (active)
same,IC50,Fatty acid synthase [10],14.9 µM (active)
O=C(CCCn1c(=O)[nH]c2cc(Cl)ccc2c1=O)NCC1CCCO1 (configuration not stated),IC50,[4],> 31 µM (not active)
CC[C@]1(C(=O)OC)[C@H]2C(=O)N(Cc3ccccc3)C(=O)[C@H]2[C@H]2CN=C(SCc3ccc(C(=O)OC)cc3)N21,EC50,HEK293 [14],> 59.6 µM (inactive)
same,EC50,HEK293 [16],> 59.6 µM (inactive)
COc1ccc(CCNc2cc(N3CCN(C(=O)c4ccccc4OC)CC3)ccc2[N+](=O)[O-])cc1OC,AC50,[17],10.5 µM (active)
same,AC50,[7],2.63 µM (active)
same,AC50,[8],2.98 µM (active)
same,AC50,INS1,4.67 µM (active)
Cc1cc(NC(=O)COC(=O)c2[nH]nc3ccccc23)no1,IC50,[4],62.7 µM (not active)
CCc1cc(=O)oc2cc(C)cc(OC(=O)c3ccco3)c12,IC50,[4],> 93.1 µM (not active)
O=C1c2ccccc2C(=O)N1OS(=O)(=O)c1ccc(F)cc1,IC50,Fatty acid synthase [9],5.85 µM (active)
same,EC50,[18],> 56.1 µM (not active)
same,IC50,Fatty acid synthase [10],3.91 µM (active)
same,IC50,Genome polyprotein,> 100 µM (active)
same,EC50,[19],> 112 µM (not active)
O=C(O)CCC(=O)NCCc1c(/C=C2/C(=O)NC(=S)N(Cc3ccc(F)cc3)C2=O)[nH]c2ccccc12,IC50,Large T antigen,55.4 µM (active)
same,IC50,[1],1.42 µM (active)
same,IC50,Genome polyprotein,> 100 µM (active)
CCCc1nc2c(c(=O)c3ccccc3n2C)c(=O)n1-c1ccc(F)cc1,IC50,Hexokinase HKDC1,6.43 µM (active)
O=[N+]([O-])c1ccc(NC(S)=NCCc2ccccc2)cc1,IC50,Fatty acid synthase [9],24.7 µM (inactive)
same,IC50,Fatty acid synthase [10],15 µM (active)
COc1ccc(C2=NN(CN3C(=O)C(=O)c4ccccc43)C(c3cccc([N+](=O)[O-])c3)C2)cc1 (configuration not stated),IC50,Fatty acid synthase [9],12.4 µM (active)
same,IC50,Fatty acid synthase [10],13 µM (active)
Cc1ccc(S(=O)(=O)NCCC(=O)NCc2ccccc2)cc1,AC50,Cytochrome P450 2C9 [6],inconclusive
same,AC50,Cytochrome P450 3A4,25.1 µM (inconclusive)
same,AC50,Cytochrome P450 1A2,17.8 µM (inconclusive)
same,AC50,Cytochrome P450 2D6,25.1 µM (inconclusive)
